Source: paper PMC8121067 (Journal of Cell Science, 2021)
“And” between values parts separate entries of the source, which are not always exact repeats. Identical values can stand only once. “Also recorded” adds a separate entry of the source. Marks after values point to notes of the source that are not given here.

Tests used:
HFF cells = assay: centripetal movement of myosin 2 filaments at transverse arcs in living cells (PIV); assay type: cell-based, human; conditions: treated 45 min, 12.5, 25 or 50 μM
Excerpt: (§1) We also tested inhibition of contraction of another type of contractile actomyosin structure, i.e. of the transverse arcs formed by periodically arranged myosin and actin filaments in fibroblasts ([Hu et al., 2017]). We measured the velocity of movement of transverse arcs in human foreskin fibroblast (HFF) cells plated on a circular fibronectin island ([Tee et al., 2015]). In control cells, filaments of non-muscle myosin 2 were visualized by expression of GFP-tagged myosin regulatory light chain (GFP-MRLC) localized to the transverse arcs and moved towards the cell center with an average velocity of 0.152 μm/min, as determined by particle image velocimetry (PIV) (Fig. 2A) ([Hu et al., 2017)]. […] Permeabilization of the same cells by using Triton X-100 removed G-actin and ATP. […]
(§2) Particle Image Velocimetry (PIV) analysis was used to measure average instantaneous speed of filaments of non-muscle myosin 2 visualized by expression of GFP-MRLC. […] To quantify the retraction speed of stress fiber ends, we manually selected all ends labeled by unconverted mEOS3.2-actin and arranged them into kymographs for every cell. The retraction speed for each end during imaging was calculated manually using the kymograph. The average retraction speed of stress fibers was calculated for each cell and plotted.

permeabilized HFF cells = assay: ATP-induced centripetal movement of myosin 2 filaments in permeabilized cells (PIV); assay type: cell-based, human; conditions: 50 μM
Excerpt: as §1, §2

mDia1 = tested on: mDia1; parameters: method as in Rizvi et al., 2009; conditions: actin assembly in the presence of profilin in vitro; ref Rizvi et al., 2009; read-out: Half-maximal inhibition of mDia1; cited from earlier work
[1] = tested on: Formins: CYK-1, Cdc12 and Fus1, Bn1, mDia2; parameters: method as in Rizvi et al., 2009; conditions: CYK-1, Cdc12, Fus1, Bn1, mDia2; ref Rizvi et al., 2009; read-out: IC50 values for formins from a variety of species; cited from earlier work
[2] = target: rabbit skeletal muscle myosin 2; assay: actin-activated ATPase assay (NADH-linked); assay type: biochemical; conditions: tissue purified, mixed isoforms; approximate
Description: (§3) Two methods are primarily used to assess actomyosin function in vitro. […] In the absence of actin, myosins have very low basal ATPase rates that are activated 10–1000-fold by the addition of actin ([De La Cruz and Ostap, 2009]).
(§4) A heavy meromyosin (HMM)-like fragment of human non-muscle myosin 2A was prepared by expression in Sf9 insect cells as described ([Kengyel et al., 2010]). Cells were co-infected with a virus driving the expression of the truncated myosin heavy chain as well as one driving the expression of regulatory and essential light chains. The myosin was phosphorylated through smooth muscle myosin light chain kinase (MLCK) prior to use ([Nagy et al., 2013]). Full-length Drosophila myosin 5 ([Lu et al., 2020]), Drosophila myosin 7a ([Yang et al., 2009]) and a forced dimeric HMM-like fragment of bovine myosin 10 ([Takagi et al., 2014]) were also produced in Sf9 cells. Drosophila myosin 5 was co-expressed with Drosophila ELC and calmodulin, whereas the HMM-like fragment of myosin 10 was co-expressed with calmodulin. Skeletal muscle HMM was produced by chymotrypic digestion of full-length rabbit fast skeletal muscle myosin ([Margossian and Lowey, 1982]). […]
(§5) Actin-activated ATPase assays were carried out using an NADH-linked assay in a Cary 50 spectrophotometer as previously described ([Heissler et al., 2015]). […] Absorbance was monitored at 340 nm. […]

[3] = target: T1, human non-muscle myosin 2A (Homo sapiens, UniProt P35579); assay: actin-activated ATPase assay (NADH-linked); assay type: biochemical; conditions: phosphorylated by MLCK; 10 µM actin, 25°C; approximate; read-out: IC50, actin-activated MgATPase activity
T1 construct: A heavy meromyosin (HMM)-like fragment of human non-muscle myosin 2A; made in house; host or cells: Sf9 insect cells (baculovirus co-infection)
T1 sequence (P35579 1-1337 limits assumed): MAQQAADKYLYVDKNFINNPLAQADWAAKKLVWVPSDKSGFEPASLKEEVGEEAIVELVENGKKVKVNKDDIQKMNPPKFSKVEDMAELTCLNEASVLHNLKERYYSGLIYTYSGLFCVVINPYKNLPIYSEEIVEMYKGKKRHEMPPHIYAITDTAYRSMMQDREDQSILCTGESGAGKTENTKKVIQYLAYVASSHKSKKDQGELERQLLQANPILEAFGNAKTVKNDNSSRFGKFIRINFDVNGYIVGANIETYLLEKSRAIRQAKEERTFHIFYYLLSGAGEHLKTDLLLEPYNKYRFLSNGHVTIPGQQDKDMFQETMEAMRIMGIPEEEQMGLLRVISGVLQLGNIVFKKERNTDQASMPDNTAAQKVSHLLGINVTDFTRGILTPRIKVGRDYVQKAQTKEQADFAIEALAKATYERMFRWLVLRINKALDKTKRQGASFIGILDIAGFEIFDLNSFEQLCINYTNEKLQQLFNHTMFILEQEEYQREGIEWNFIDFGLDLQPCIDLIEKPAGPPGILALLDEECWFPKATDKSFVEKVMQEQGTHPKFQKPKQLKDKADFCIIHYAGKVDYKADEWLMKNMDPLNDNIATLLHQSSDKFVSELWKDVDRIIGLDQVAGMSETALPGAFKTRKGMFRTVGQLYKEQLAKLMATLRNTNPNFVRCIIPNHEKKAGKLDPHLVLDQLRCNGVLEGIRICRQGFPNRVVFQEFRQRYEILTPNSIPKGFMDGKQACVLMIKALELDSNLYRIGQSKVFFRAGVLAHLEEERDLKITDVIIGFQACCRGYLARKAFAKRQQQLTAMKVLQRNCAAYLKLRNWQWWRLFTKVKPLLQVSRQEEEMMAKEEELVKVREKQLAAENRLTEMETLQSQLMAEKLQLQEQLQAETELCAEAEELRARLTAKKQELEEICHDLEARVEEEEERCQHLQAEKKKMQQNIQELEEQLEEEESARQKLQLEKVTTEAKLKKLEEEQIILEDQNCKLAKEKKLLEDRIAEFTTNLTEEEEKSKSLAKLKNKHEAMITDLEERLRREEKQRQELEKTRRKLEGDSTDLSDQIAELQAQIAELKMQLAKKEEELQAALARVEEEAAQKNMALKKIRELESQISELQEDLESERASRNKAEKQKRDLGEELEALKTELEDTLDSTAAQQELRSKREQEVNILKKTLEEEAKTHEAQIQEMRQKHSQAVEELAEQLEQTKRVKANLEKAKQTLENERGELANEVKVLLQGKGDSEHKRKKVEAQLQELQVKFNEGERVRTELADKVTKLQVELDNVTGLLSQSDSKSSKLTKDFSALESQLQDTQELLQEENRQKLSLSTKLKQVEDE
T1 sequence (O14950 2-172 partner limits assumed): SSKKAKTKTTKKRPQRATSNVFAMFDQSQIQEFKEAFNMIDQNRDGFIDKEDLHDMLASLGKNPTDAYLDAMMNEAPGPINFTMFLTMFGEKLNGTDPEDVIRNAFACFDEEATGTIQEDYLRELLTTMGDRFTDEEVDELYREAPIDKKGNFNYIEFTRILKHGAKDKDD
T1 sequence (P60660 2-151 partner limits assumed): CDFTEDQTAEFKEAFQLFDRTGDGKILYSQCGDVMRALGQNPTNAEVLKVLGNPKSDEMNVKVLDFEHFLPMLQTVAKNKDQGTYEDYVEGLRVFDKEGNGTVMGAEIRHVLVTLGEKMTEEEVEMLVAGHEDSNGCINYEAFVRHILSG
Description: as §3, §4, §5

[4] = tested on: rabbit skeletal muscle myosin 2 HMM; assay: gliding actin in vitro motility assay; assay type: biochemical
Excerpt: Here, skeletal muscle myosin 2 HMM is bound to a nitrocellulose-coated coverslip and its ability to translocate Rhodamine–phalloidin-labeled actin filaments observed (Table 1). […] The lack of reversibility could be due to covalent modification of myosin by SMIFH2. […] A higher drug concentration was required to achieve ∼50% of the gliding velocity than was required for similar inhibition of the actin-activated ATPase. This was also observed when blebbistatin was used to inhibit actin gliding ([Limouze et al., 2004]; [Sakamoto et al., 2005]).
The gliding actin in vitro motility assay was conducted at 30°C in 50 mM KCl, 4 mM MgCl2, 0.1 mM EGTA, 30 mM MOPS pH 7.2, 0.5% methylcellulose, 1 mM ATP, using an oxygen-savaging system consisting of 2.5 μg/ml glucose oxidase, 45 μg/ml catalase, 2.5 mg/ml glucose and […] DTT ([Sellers et al., 1993]). The rate of movement of actin filaments was determined as described previously ([Homsher et al., 1992]).

REF52 fibroblast = assay: traction force microscopy in living cells; assay type: cell-based, rat; conditions: 30 μM, within 10 min
Description: Traction force microscopy with embedded beads was performed as described previously ([Rafiq et al., 2019]). Briefly, soft polydimethylsiloxanes CY 52-276A and CY 52-276B (Dow Corning, 0008602722) were mixed at the ratio 1:1 and Sylgard 184 crosslinker was used to tune the stiffness of the gel for proper force measurement of cells (∼95 kPa). The mixture was spin-coated onto a clean coverslip to achieve the thickness of ∼7 μm and cured for 1 h at 80°C. The surface of the gel was silanized with (3-aminopropyl)triethoxysilane for 2 h, followed by incubation of 0.04 μm FluoSpheres carboxylate-modified microspheres, dark red fluorescent (660/680) beads (Thermo Fisher Scientific, 1871942) at 1×10^6 beads/ml in a solution of 0.1 M NaHCO3 for 30 min. Before seeding the cells, the coverslips with beads were further incubated for 30 min with 10 μg/ml fibronectin, also dissolved in 0.1 M NaHCO3. Traction forces were calculated from bead displacement fields visualized by using live cell imaging as described by [Tseng et al. (2012)], and using the online ImageJ plugin (https://sites.google.com/site/qingzongtseng/tfm for plugin software details). The computation algorithm as published by [Sabass et al. (2008)] was used. The distribution of traction force magnitude was presented as a heat map (Fig. 1A), and mean magnitude values were calculated for each cell.

bovine myosin 10 = target: T2, bovine myosin 10 (Bos taurus, UniProt P79114); assay: actin-activated ATPase assay (NADH-linked); assay type: biochemical; conditions: approximate
T2 construct: a forced dimeric HMM-like fragment of bovine myosin 10; dimerisation element (forced dimer); made in house; host or cells: Sf9 cells
T2 sequence (P79114 other isoform, or with tags, fused parts or gaps): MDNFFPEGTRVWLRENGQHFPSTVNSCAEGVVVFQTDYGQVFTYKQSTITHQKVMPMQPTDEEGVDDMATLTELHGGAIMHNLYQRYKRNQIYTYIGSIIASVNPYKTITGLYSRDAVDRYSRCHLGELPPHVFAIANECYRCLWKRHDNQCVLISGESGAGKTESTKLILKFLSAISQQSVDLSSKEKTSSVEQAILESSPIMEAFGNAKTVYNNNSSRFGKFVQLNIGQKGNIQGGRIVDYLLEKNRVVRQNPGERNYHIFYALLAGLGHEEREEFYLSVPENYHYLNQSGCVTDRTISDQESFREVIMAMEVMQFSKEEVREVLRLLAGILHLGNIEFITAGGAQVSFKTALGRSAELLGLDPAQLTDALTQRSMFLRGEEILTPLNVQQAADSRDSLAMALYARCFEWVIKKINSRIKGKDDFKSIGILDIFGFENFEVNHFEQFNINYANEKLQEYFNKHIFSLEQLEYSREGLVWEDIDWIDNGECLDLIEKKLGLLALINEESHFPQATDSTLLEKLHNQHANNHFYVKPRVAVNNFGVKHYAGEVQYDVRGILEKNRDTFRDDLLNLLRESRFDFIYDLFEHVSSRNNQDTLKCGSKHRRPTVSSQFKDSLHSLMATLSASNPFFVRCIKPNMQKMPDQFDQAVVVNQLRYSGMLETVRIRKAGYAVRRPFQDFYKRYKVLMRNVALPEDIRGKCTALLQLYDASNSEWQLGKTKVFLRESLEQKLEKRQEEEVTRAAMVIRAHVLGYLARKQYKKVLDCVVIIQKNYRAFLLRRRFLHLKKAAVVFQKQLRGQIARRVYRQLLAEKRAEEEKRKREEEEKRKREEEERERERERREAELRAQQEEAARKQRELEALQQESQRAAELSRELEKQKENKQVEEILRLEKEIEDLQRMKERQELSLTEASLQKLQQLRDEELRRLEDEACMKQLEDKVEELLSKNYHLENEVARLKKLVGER
Excerpt: (§6) There are 40 myosin heavy chain genes from twelve classes in the human genome ([Berg et al., 2001]). Many, but not all of these myosins are present in other metazoan species including Drosophila ([Yamashita et al., 2000]). Although all of these myosins contain a conserved motor domain, the tail portions are very diverse, allowing the myosins to perform a plethora of cellular functions. […] The assays regarding bovine myosin 10 are particularly interesting since this myosin plays a role in filopodia initiation and formation in mammalian cells ([Kerber and Cheney, 2011]), a process that also involves formin action.
(§7) A heavy meromyosin (HMM)-like fragment of human non-muscle myosin 2A was prepared by expression in Sf9 insect cells as described ([Kengyel et al., 2010]). Cells were co-infected with a virus driving the expression of the truncated myosin heavy chain as well as one driving the expression of regulatory and essential light chains. The myosin was phosphorylated through smooth muscle myosin light chain kinase (MLCK) prior to use ([Nagy et al., 2013]). Full-length Drosophila myosin 5 ([Lu et al., 2020]), Drosophila myosin 7a ([Yang et al., 2009]) and a forced dimeric HMM-like fragment of bovine myosin 10 ([Takagi et al., 2014]) were also produced in Sf9 cells. Drosophila myosin 5 was co-expressed with Drosophila ELC and calmodulin, whereas the HMM-like fragment of myosin 10 was co-expressed with calmodulin. Skeletal muscle HMM was produced by chymotrypic digestion of full-length rabbit fast skeletal muscle myosin ([Margossian and Lowey, 1982]). Rabbit skeletal muscle actin was prepared as previously described ([Lehrer and Kerwar, 1972]).
(§8) Actin-activated ATPase assays were carried out using an NADH-linked assay in a Cary 50 spectrophotometer as previously described ([Heissler et al., 2015]). […] The final amount of DMSO added to the samples was 2%. The assay conditions were 10 µM actin, 50 mM KCl, 10 mM MOPS, 2 mM MgCl2, 0.1 mM EGTA, 1 mM ATP, 10 mM MOPS pH 7.0 at 25°C. […] Absorbance was monitored at 340 nm.

Drosophila myosin 5 = Drosophila myosin 5 (Drosophila melanogaster, UniProt A1Z6Z9); assay: actin-activated ATPase assay (NADH-linked); assay type: biochemical; conditions: approximate
Excerpt: as §6, §7, §8

Drosophila myosin 7a = target: T3, Drosophila myosin 7a (Drosophila melanogaster, UniProt Q9V3Z6); assay: actin-activated ATPase assay (NADH-linked); assay type: biochemical; conditions: approximate
T3 construct: made in house; host or cells: Sf9 cells
Excerpt: as §6, §7, §8

MLCK = MLCK (Homo sapiens, UniProt Q15746); assay: myosin light chain kinase phosphorylation of non-muscle myosin 2A (HPLC-mass spectrometry); assay type: biochemical; conditions: 100 μM
MLCK, sequence (Q15746 923-1914): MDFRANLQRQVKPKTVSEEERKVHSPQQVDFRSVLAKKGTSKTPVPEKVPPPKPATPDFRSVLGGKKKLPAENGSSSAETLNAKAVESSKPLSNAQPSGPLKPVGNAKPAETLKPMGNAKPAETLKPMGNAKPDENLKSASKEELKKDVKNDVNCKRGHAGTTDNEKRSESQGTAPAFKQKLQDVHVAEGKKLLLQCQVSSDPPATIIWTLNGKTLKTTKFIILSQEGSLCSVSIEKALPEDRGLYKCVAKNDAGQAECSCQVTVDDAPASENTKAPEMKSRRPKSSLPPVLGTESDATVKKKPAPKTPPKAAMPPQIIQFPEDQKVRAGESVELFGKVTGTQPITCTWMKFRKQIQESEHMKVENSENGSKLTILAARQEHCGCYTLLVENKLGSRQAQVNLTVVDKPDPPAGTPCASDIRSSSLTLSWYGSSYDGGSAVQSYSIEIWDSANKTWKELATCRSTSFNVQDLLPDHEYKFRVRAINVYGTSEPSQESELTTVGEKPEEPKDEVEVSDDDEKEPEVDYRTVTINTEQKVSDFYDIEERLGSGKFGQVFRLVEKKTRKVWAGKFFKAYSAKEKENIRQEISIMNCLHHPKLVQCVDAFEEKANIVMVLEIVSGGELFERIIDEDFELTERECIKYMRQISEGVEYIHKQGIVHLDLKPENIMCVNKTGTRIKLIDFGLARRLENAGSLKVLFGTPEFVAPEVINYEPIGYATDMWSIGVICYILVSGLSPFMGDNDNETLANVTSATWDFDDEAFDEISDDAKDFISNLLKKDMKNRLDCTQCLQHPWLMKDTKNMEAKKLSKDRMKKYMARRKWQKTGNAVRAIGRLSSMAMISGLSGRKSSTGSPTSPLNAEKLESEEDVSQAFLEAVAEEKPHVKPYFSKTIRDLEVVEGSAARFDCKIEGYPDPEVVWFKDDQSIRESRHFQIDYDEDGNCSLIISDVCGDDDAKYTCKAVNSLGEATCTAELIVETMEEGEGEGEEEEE

[5] = tested on: permeabilized REF52 cells; assay: ATP-dependent ventral stress fiber retraction in Triton X-100-permeabilized cells; assay type: cell-based, rat
Description: Detergent treatment leads to depletion of all soluble factors from the cells and, in particular, of ATP. Supplementing the medium with ATP induces the myosin 2-dependent contraction of stress fibers. […] We locally photoconverted spots along the length of ventral stress fibers, and tracked both retraction of the unconverted stress fiber ends and longitudinal movements of the photoconverted actin spots after adding ATP into the solution (Fig. 1C, left panel).
For stress fiber imaging, REF52 cells were transfected with mEos3.2-Actin expression plasmid and seeded onto a 35 mm glass bottom dish (Iwaki, 3930-035) 24 h prior to the assay.
The protocol of the cell permeabilization and cytoskeleton contractility assay has been described previously ([Tee and Bershadsky, 2016]; [Tee et al., 2015]). […] All drug remained in the buffer during the entire period of observation.

pure actin = tested on: pure actin; parameters: method as in Rizvi et al., 2009; conditions: ref Rizvi et al., 2009; cited from earlier work

Row | SMILES | velocity of centripetal movement of transverse arcs (myosin 2 filaments) (HFF cells) | ATP-induced centripetal movement of myosin 2 filaments (permeabilized HFF cells) | IC50 (mDia1) | IC50 [1] | IC50 [2] | IC50 [3] | Velocity of actin filaments ([4]; 50 μM SMIFH2) | Velocity of actin filaments ([4]; 100 μM SMIFH2) | Velocity of actin filaments ([4]; 150 μM SMIFH2) | Velocity of actin filaments ([4]; 150 μM SMIFH2 followed by washout) | Velocity of actin filaments ([4]; 200 μM SMIFH2) | effect on traction forces exerted by cells (REF52 fibroblast) | IC50 (bovine myosin 10) | IC50 (Drosophila myosin 5) | IC50 (Drosophila myosin 7a) | inhibition of MLCK activity (MLCK) | inhibition of ATP-induced retraction of stress fiber ends (contractility) ([5]; >100 μM SMIFH2) | inhibition of ATP-induced retraction of stress fiber ends ([5]; ∼50μM SMIFH2) | effect on assembly of pure actin (pure actin) | inhibition of ATP-induced retraction of stress fiber ends (contractility) ([5]; 100 μM pAB)
1 | O=C1NC(=S)N(c2cccc(Br)c2)C(=O)C1=Cc1ccco1 [SMIFH2] | decreased in dose-dependent manner | blocked centripetal movement | ~15 µM | 5 to 15 µM | ~40 µM | 50 µM and ~50 µM | 4.1* μm/s | 4.1* μm/s | completely abolished; also recorded: No movement | could not be reversed; also recorded: No movement | No movement | inhibition of traction forces | 15 µM and ~15 µM | 2 µM and ~2 µM | 30 µM and ~30 µM | no effect; also recorded: did not inhibit | complete inhibition | ~50% | did not affect | 
2 | Cc1ccc2c(c1)C(=O)[C@]1(O)CCN(c3ccc(N)cc3)C1=N2 [pAB, para-aminoblebbistatin] |  |  |  |  |  |  |  |  |  |  |  |  |  |  |  |  |  |  |  | complete inhibition
